Molecular target: σ1-receptor (Cavia porcellus (Guinea pig), UniProt Q60492)
Assay: σ1-receptor binding assay, [3H]-(+)-pentazocine displacement in brain membranes
Details: radioligand [3H]-(+)-pentazocine 5.0 nM; for % Displacement (10^−6 M): compound at 10^−6 M
Procedure: Guinea pig brains were homogenized in 10 vols. (w/v) of Tris-HCl 50 mM 0.32 M sucrose, pH 7.4, with a Kinematica Polytron PT 3000 at 15000 r.p.m. for 30 s. The homogenate was centrifuged at 1000 g for 10 min at 4° C. and the supernatants collected and centrifuged again at 48000 g for 15 min at 4° C. The pellet was resuspended in 10 volumes of Tris-HCl buffer (50 mM, pH 7.4), incubated at 37° C. for 30 min, and centrifuged at 48000 g for 20 min at 4° C. Following this, the pellet was resuspended in fresh Tris-HCl buffer (50 mM, pH 7.4) and stored on ice until use.
The radioligand used was [^3H]-(+)-pentazocine at 5.0 nM and the final volume was 200 μl. The incubation was initiated with the addition of 100 μA of membrane at a final tissue concentration of approximately 5 mg tissue net weight/mL and the incubation time was 150 m. at 37° C. After incubation, the membranes were collected onto pretreated glass fiber filterplate (MultiScreen-FC, Millipore), with polyethylenimine 0.1%. The filters were washed two times with 200 μA of washing buffer (50 mM Tris CI, pH=7.4) and then 25 μl of Ecoscint H liquid scintillation cocktail were added. […] Nonspecific binding was determined with 1 μM haloperidol.

σ1-receptor, sequence (Q60492 whole entry): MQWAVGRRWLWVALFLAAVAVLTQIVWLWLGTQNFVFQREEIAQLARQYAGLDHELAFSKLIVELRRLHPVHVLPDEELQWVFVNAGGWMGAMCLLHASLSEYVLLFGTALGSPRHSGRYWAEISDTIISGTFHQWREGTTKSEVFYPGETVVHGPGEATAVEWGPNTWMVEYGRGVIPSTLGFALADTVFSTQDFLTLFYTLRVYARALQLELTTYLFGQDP

SMILES	% Displacement (10^−6 M) [%]	Ki [nM]	Ki (maleate) [nM]
Cl.O=C(Nc1ncnc2c1cnn2CCN1CCCCC1)C1CCCCC1 [Example 6, N-(1-(2-(Piperidin-1-yl)ethyl)-1H-pyrazolo[3,4-d]pyrimidin-4-yl)cyclohexanecarboxamide hydrochloride]	78.6	73.1	
CC(C)N(CCn1ncc2c(NC(=O)NC(C)(C)C)ncnc21)C(C)C.Cl [Example 61, 1-tert-Butyl-3-(1-(2-(diisopropylamino)ethyl)-1H-pyrazolo[3,4-d]pyrimidin-4-yl)urea hydrochloride]	25.9	805	
CC(C)N(CCn1ncc2c(NC(=O)C34C5CC6CC3CC64C5)ncnc21)C(C)C.Cl [Example 21, N-(1-(2-(Diisopropylamino)ethyl)-1H-pyrazolo[3,4-d]pyrimidin-4-yl)-1-noradamantylcarboxamide hydrochloride]	90.8	55	
CCCNC(=O)Nc1ncnc2c1cnn2CCN1CCC(C(C)(C)C)CC1 [Example 74, 1-(1-(2-(4-tert-butylpiperidin-1-yl)ethyl)-1H-pyrazolo[3,4-d]pyrimidin-4-yl)-3-propylurea]		212	
CCCNC(=O)Nc1ncnc2c1cnn2CCN1CCCOCC1 [Example 44, 1-(1-(2-(1,4-oxazepan-4-yl)ethyl)-1H-pyrazolo[3,4-d]pyrimidin-4-yl)-3-propylurea]		252	
CC(C)N1CCN(CCn2ncc3c(NC(=O)C45CC6CC(CC(C6)C4)C5)ncnc32)CC1.O=C(O)/C=C\C(=O)O [Example 31, N-(1-(2-(4-isopropylpiperazin-1-yl)ethyl)-1H-pyrazolo[3,4-d]pyrimidin-4-yl) 1-adamantylcarboxamide maleate]	76.8	573	
CCCNC(=O)Nc1ncnc2c1cnn2CCCN1CCCCCC1 [Example 73, 1-(1-(3-(azepan-1-yl)propyl)-1H-pyrazolo[3,4-d]pyrimidin-4-yl)-3-propylurea]		102	
CCCNC(=O)Nc1ncnc2c1cnn2CCCCN1CCC(C(C)(C)C)CC1 [Example 93, 1-(1-(4-(4-tert-butylpiperidin-1-yl)butyl)-1H-pyrazolo[3,4-d]pyrimidin-4-yl)-3-propylurea]		280	
CC(C)(C)c1cc(C(=O)Nc2ncnc3c2cnn3CCN2CCCCC2)cc(C(C)(C)C)c1.Cl [Example 9, 3,5-di-tert-Butyl-N-(1-(2-(piperidin-1-yl)ethyl)-1H-pyrazolo[3,4-d]pyrimidin-4-yl)benzamide hydrochloride]	49.50	700	
CN1CCN(CCCn2ncc3c(NC(=O)C(C)(C)C)ncnc32)CC1 [Example 86, N-(1-(3-(4-methylpiperazin-1-yl)propyl)-1H-pyrazolo[3,4-d]pyrimidin-4-yl)pivalamide]		329	
CC(C)(C)CC(C)(C)NC(=O)Nc1ncnc2c1cnn2CCN1CCCCCC1.O=C(O)/C=C\C(=O)O [Example 65, 1-(1-(2-(azepan-1-yl)ethyl)-1H-pyrazolo[3,4-d]pyrimidin-4-yl)-3-(2,4,4-trimethylpentan-2-yl)urea maleate]	96.8	27.9	
CC(C)N(CCn1ncc2c(NC(=O)C3CCCCC3)ncnc21)C(C)C.O=C(O)/C=C\C(=O)O [Example 16, N-(1-(2-(Diisopropylamino)ethyl)-1H-pyrazolo[3,4-d]pyrimidin-4-yl)cyclohexanecarboxamide maleate]	68.2	244	
Cl.O=C(Nc1ncnc2c1cnn2CCN1CCCCCC1)C12C3CC4CC1CC42C3 [Example 22, N-(1-(2-(Azepan-1-yl)ethyl)-1H-pyrazolo[3,4-d]pyrimidin-4-yl) 1-noradamantylcarboxamide hydrochloride]	97.2	15	
Cc1ccc(C)n1-c1ncnc2c1cnn2CCN1CCCCC1 [Example 105, 4-(2,5-dimethyl-1H-pyrrol-1-yl)-1-(2-(piperidin-1-yl)ethyl)-1H-pyrazolo[3,4-d]pyrimidine]		740	
O=C(Nc1ccc(Cl)cc1Cl)Nc1ncnc2c1cnn2CCN1CCCCCC1.O=C(O)CC(O)(CC(=O)O)C(=O)O [Example 64, 1-(1-(2-(azepan-1-yl)ethyl)-1H-pyrazolo[3,4-d]pyrimidin-4-yl)-3-(2,4-dichlorophenyl)urea citrate]	91.4	108	
CC(=O)N(C)c1ncnc2c1cnn2CCN1CCCCCC1 [Example 101, N-(1-(2-(azepan-1-yl)ethyl)-1H-pyrazolo[3,4-d]pyrimidin-4-yl)-N-methylacetamide]		221	
CC(C)N1CCN(CCn2ncc3c(NC(=O)C4CCCC4)ncnc32)CC1.O=C(O)/C=C\C(=O)O [Example 32, N-(1-(2-(4-isopropylpiperazin-1-yl)ethyl)-1H-pyrazolo[3,4-d]pyrimidin-4-yl)cyclopentanecarboxamide maleate]	63.3		683
CNC(=S)Nc1ncnc2c1cnn2CCN1CCCCCC1.O=C(O)/C=C\C(=O)O [Example 76, 1-(1-(2-(azepan-1-yl)ethyl)-1H-pyrazolo[3,4-d]pyrimidin-4-yl)-3-methylthiourea maleate]	96.8	14.9	
CC(C)N(CCn1ncc2c(NC(=O)C3CCCC3)ncnc21)C(C)C.O=C(O)/C=C\C(=O)O [Example 28, N-(1-(2-(Diisopropylamino)ethyl)-1H-pyrazolo[3,4-d]pyrimidin-4-yl)cyclopentanecarboxamide maleate]	54.0	631	
CC(C)N(CCn1ncc2c(NC(=O)C34CC5CC(CC(C5)C3)C4)ncnc21)C(C)C.O=C(O)/C=C\C(=O)O [Example 18, N-(1-(2-(Diisopropylamino)ethyl)-1H-pyrazolo[3,4-d]pyrimidin-4-yl)-1-adamantylcarboxamide maleate]	90.2	56.7	
